Test results published in paper PMC3391680, “Selective and Specific Inhibition of the Plasmodium falciparum Lysyl-tRNA Synthetase by the Fungal Secondary Metabolite Cladosporin” (Cell Host & Microbe, 2012).
Read-outs that look alike come from different tables or passages of the source. *1 amine or outer side, *2 acyl side, *3 side chain or, on linkers, in order; H or OH if unused. Where a SMILES comes first, the peptide text is derived from it. [ ]: non-standard residue; d: D form. X1 = CC(C)([C@@H]1CO1)n1cc([C@@H](O)[C@H](CC(=O)[*:2])N[*:1])c2ccccc21; NMeLeu(5-OH,4R) = CN[C@@H](C[C@@H](C)CO)C(=O)O; Nle(4R-Me-5-ene) = C=C[C@H](C)C[C@H](N)C(=O)O; Phe(βR-OMe) = CO[C@H](c1ccccc1)[C@H](N)C(=O)O; NMeL = CN[C@@H](CC(C)C)C(=O)O

Experiments:
[1] = tested on: T1, Plasmodium falciparum Dd2; experiment: microbe, parasite or virus in culture; parameters: species or system Plasmodium falciparum Dd2 in human erythrocytes; Asexual blood-stage parasite proliferation, SYBR Green I DNA fluorescence; settings: DD2, Erythrocyte, 72 h, read-out: IC50 values (nM)
T1 construct: Dd2
Protocol: Powershot G10 camera attached to the microscope and imported in Adobe Photoshop and Illustrator for image sizing and figure generation, respectively. SYBR Green cell proliferation assay. Compounds were tested for activity against asexual blood stage parasites using a previously described screening method (Plouffe et al., 2008). […] Toxoplasma gondii culturing and assay methods. The tachyzoite stage of Toxoplasma gondii (RH1, GFP-luc) was maintained by serial passage in human foreskin fibroblasts (HFF) cultured in Hank’s Buffered Salt Solution (HBSS) supplemented with 10% FBS, 2 mM L-glutamine, and 100 μg penicillin/100 μg streptomycin per milliliter maintained at 37 °C and 5% CO2. Parasites were harvested for use in assays by syringe lysis of infected HFF monolayers. Parasites were then centrifuged at 1,200 × g for 6 min and resuspended in HBSS supplemented with 10 mM Hepes, pH 7.0, and 1% (v/v) dialyzed FBS. All buffers were filter sterilized by passage through a […] Millipore Syringe Filter. Approximately 50,000 parasites and 5,000 HFF cell were incubated with compounds for 48 hours at 37 °C. Parasite and host cell proliferation rates were then determined using Bright-Glo® and CellTiter-Glo® (Promega). Maintenance, synchronization and imaging of erythrocytic stage P. falciparum cultures. A clonal stock of the P. falciparum line Dd2 (parental clone) was established by limiting dilution from a Dd2 isolate (MRA-156) obtained from the Malaria Research and Reference Reagent Resource Center (MR4; American Type Culture Collection), and used throughout these studies. All P. falciparum parasites were cultured in human erythrocytes and complete culturing media (CM) as previously described (Dharia et al., 2009). Highly synchronous cultures were achieved using the sorbitol synchronization method (Lambros and Vanderberg, 1979). Visualization of parasites were performed on Giemsa-stained thin blood smears under a 100x oil immersion objective on a Zeiss Primo Star light microscope. Digital images were captured using a Canon

[2] = target: T2, human lysyl-tRNA synthetase (human Krs1) (Homo sapiens, UniProt Q15046); experiment: Transcreener AMP fluorescence polarization aminoacylation assay with recombinant enzyme; weak inhibition; type: biochemical
T2 construct: gene KARS1; purified recombinant human enzyme (Origene TP300311)
T2 sequence (Q15046 2-597): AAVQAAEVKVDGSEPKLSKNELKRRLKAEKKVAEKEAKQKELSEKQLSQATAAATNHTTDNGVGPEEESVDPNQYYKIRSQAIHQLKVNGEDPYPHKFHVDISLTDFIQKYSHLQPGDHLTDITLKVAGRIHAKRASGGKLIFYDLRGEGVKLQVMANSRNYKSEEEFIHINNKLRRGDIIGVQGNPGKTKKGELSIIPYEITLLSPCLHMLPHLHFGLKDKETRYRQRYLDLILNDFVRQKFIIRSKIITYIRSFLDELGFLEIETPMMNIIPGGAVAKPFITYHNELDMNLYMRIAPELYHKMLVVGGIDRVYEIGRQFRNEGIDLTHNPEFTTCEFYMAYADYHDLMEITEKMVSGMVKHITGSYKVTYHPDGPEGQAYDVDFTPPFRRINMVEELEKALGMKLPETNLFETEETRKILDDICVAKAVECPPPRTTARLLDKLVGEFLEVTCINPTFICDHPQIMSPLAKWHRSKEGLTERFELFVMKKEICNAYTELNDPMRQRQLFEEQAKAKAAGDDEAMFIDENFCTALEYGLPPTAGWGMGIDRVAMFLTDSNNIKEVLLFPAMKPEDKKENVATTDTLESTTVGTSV

[3] = target: T3, P. falciparum cytosolic lysyl-tRNA synthetase (PfKrs1) (Plasmodium falciparum, UniProt Q8IDJ8); experiment: Transcreener AMP fluorescence polarization aminoacylation assay with recombinant enzyme; type: biochemical
T3 construct: gene PF3D7_1350100; recombinant PF13_0262, codon-optimized, in pET-28a(+), expressed in E. coli and purified
T3 sequence (Q8IDJ8 entry or part of it): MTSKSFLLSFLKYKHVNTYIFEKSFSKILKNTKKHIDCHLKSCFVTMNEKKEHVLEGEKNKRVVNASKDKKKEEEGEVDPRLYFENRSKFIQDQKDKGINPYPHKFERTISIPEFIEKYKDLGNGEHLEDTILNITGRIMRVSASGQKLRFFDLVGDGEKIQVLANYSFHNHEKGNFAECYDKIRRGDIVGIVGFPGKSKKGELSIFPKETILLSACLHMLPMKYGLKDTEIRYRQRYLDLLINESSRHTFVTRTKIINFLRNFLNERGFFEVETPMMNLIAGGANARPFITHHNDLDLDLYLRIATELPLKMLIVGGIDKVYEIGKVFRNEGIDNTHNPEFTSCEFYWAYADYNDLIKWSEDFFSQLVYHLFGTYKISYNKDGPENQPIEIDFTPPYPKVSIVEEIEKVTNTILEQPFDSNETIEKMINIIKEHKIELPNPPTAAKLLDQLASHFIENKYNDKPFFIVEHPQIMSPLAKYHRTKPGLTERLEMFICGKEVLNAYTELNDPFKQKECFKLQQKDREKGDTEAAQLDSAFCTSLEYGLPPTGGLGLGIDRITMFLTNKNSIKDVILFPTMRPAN

[4] = tested on: T4, Saccharomyces cerevisiae BY4743Δ8; experiment: microbe, parasite or virus in culture; parameters: Yeast growth inhibition, optical density at 600 nm, dose response; settings: synthetic media, no added lysine, read-out: Cladosporin IC50 (µM) Synthetic media
T4 construct: BY4743Δ8 (eight drug-resistance genes deleted: SNQ2, PDR5, YOR1, PDR1, PDR2, PDR3, YAP1, YRM1)
Protocol: SUPPLEMENTAL FIGURES Figure S1 | Cladosporin inhibition of S. cerevisiae wild type strain BY4743 and a drug efflux mutant strain BY4743Δ8, related to Figure 1. Yeast growth in the presence of cladosporin was measured by optical density at 600 nm (OD600) and the 30% inhibitory concentration (IC30) and 50% inhibitory concentration (IC50) of cell growth were determined. […] Data were collected from duplicate experiments, normalized with a DMSO control and expressed as the means±SD. A logistic regression curve fit algorithm on the recorded OD600 values was performed to determine the aforementioned IC30 and IC50 values. Strain BY4743Δ8, derived from BY4741 but deleted for eight genes involved in drug resistance (efflux pumps, SNQ2, PDR5, YOR1; transcription factors, PDR1, PDR2, PDR3, YAP1, YRM1) was incubated in 2.5% ethylmethanesulfonate until only 50% of the cells formed colonies. A total of 2 × 10^7 mutagenized CMB970 cells were plated on two 14 cm dishes with synthetic complete medium (0.7 g/l Difco Yeast Nitrogen Base without amino acids, 0.79 g/l MPbio CSM amino acid mixture, 2% glucose) containing 50 μM cladosporin. After 4 days, 37 resistant colonies appeared. […] Of these 37, ten colonies contained nonsynonymous mutations in the KRS1 open reading frame. […] Curves were calculated by taking the 16 hr OD600 measurements and applying a logistic regression curve fit. […]

[5] = tested on: T4, Saccharomyces cerevisiae BY4743Δ8; experiment: microbe, parasite or virus in culture; parameters: Yeast growth inhibition, optical density at 600 nm, dose response; settings: rich media, no added lysine, read-out: Cladosporin IC50 (µM) Rich media
Protocol: SUPPLEMENTAL FIGURES Figure S1 | Cladosporin inhibition of S. cerevisiae wild type strain BY4743 and a drug efflux mutant strain BY4743Δ8, related to Figure 1. Yeast growth in the presence of cladosporin was measured by optical density at 600 nm (OD600) and the 30% inhibitory concentration (IC30) and 50% inhibitory concentration (IC50) of cell growth were determined. Assay plates seeded with the respective strains were grown in rich medium and incubated […] against a 12-point dilution series of cladosporin (0-200 µM). Data were collected from duplicate experiments, normalized with a DMSO control and expressed as the means±SD. A logistic regression curve fit algorithm on the recorded OD600 values was performed to determine the aforementioned IC30 and IC50 values. Strain BY4743Δ8, derived from BY4741 but deleted for eight genes involved in drug resistance (efflux pumps, SNQ2, PDR5, YOR1; transcription factors, PDR1, PDR2, PDR3, YAP1, YRM1) was incubated in 2.5% ethylmethanesulfonate until only 50% of the cells formed colonies. […] Of these 37, ten colonies contained nonsynonymous mutations in the KRS1 open reading frame. […] Curves were calculated by taking the 16 hr OD600 measurements and applying a logistic regression curve fit. […]

CCc1nc(N)nc(N)c1-c1ccc(Cl)cc1 [PYR, pyrimethamine]
IC50 [1]: > 10000 nM

C=C[C@H](C)C[C@@H]1NC(=O)[C@H](CC(C)C)N(C)C(=O)[C@H](C(C)C)NC(=O)[C@H]([C@H](OC)c2ccccc2)NC(=O)[C@H](C)NC(=O)[C@H](C[C@@H](C)CO)N(C)C(=O)C[C@@H]([C@H](O)c2cn(C(C)(C)[C@@H]3CO3)c3ccccc23)NC1=O [CycA, cyclomarin A] (cyclo(A[Phe(βR-OMe)]V[NMeL][Nle(4R-Me-5-ene)][X1][NMeLeu(5-OH,4R)]))
IC50 [1]: 48.8 ± 10.1 nM

O[C@@H](c1cc(C(F)(F)F)nc2c(C(F)(F)F)cccc12)[C@H]1CCCCN1 (racemic) [MFQ, mefloquine]
IC50 [1]: 9 nM

C[C@H]1CCC[C@H](C[C@H]2Cc3cc(O)cc(O)c3C(=O)O2)O1 [cladosporin]
IC50 [2]: > 20000 nM
IC50 [3]: 61 nM
IC50 [4]: 18.4 µM
IC50 [5]: 7.92 µM

O=C1C(O)=C([C@H]2CC[C@H](c3ccc(Cl)cc3)CC2)C(=O)c2ccccc21 [ATQ, atovaquone]
IC50 [1]: 0.8 ± 0.2 nM
